From patent US20250346635A1, “VASCULAR ENDOTHELIAL GROWTH FACTOR RECEPTOR-1 (VEGFR-1) INHIBITORS FOR PROMOTING MYELINATION AND NEUROPROTECTION” (ICM (INSTITUT DU CERVEAU ET DE LA MOELLE ÉPINIÉRE), priority 2022, published 2025)

Legend:
[1] = system: Purkinje cells; experiment: Neuroprotection of Purkinje cells in organotypic cerebellar slices (CaBP immunostaining); format: cell-based; settings: 10 days in vitro, slices from P0 mouse
Protocol: (§1) Organotypic cerebellar slices were generated from brains of postnatal day 0 (P0) and P7 mouse pups. Briefly, cerebella were dissected and cut into 350 μm slices. Cerebellar slices from the vermis were collected and then cultured on Millicell cell culture inserts (Millipore) in 6-wellplates in a medium composed of 50% Basal Medium Eagle, 25% Hank solution (HBSS), 25% inactivated horse serum, 5 mg/ml high-glucose, 1 mM L-glutamine, 0.2% penicillin-streptomycin. Slices were incubated at 37° C. (5% CO2) for 10 days (slices from P0) or 3 days (slices from P7). The culture medium was replaced every 2-3 days. For immunohistochemistry, slices were fixed in 4% paraformaldehyde and immunostained for CaBP and MBP. Briefly, slices were incubated in 4% BSA/0.2% triton for 1 hour and next incubated overnight with the following primary antibodies: rabbit anti-CaBP (dilution: 1/10000) and rat anti-MBP (dilution: 1/250). After several washes in PBS 0.1M, slices were then incubated with the secondary antibodies (anti-rabbit alexaFluor555, anti-mouse alexaFluor488) and Dapi for 2 hours and finally washed in PBS 0.1M and mounted in Fluoromount medium. Flurorescence imaging were performed with a confocal microscopy NIKON A1R-HD25.
The neuroprotective effects of the drugs were assessed by evaluating the density of Purkinje cells in basal medium alone and in basal medium supplemented with VEGFRs inhibitors. Organotypic cerebellar slices obtained from P0 mouse (as described above) were cultured for 10 days in vitro in basal medium alone, or in the basal medium supplemented either with pan-VEGFRs inhibitors, VEGFR-2/3 specific inhibitor (Telatinib) or with VEGFR-1 selective and specific inhibitors (SU14813 and ZM306416), respectively. All compounds were used at 500 nM, except ZM306416 that was used at 30 μM. After treatments, slices were immunostained for CaBP, as described above.

[2] = system: rat primary OPC cultures; experiment: OPC differentiation in rat primary OPC cultures (MBP+Sox10+ cells); format: cell-based; settings: 500 nM, 5 days in vitro
Protocol: Rat primary OPC cultures were obtained from neonatal pups (P0-P1). Brains were dissected, cerebellar cortices and meninges were removed. Brain tissues were next mechanically and enzymatically dissociated. After filtration and centrifugation, mixed cells of astrocytes, microglia and OPCs was cultured in DMEM medium on polyornithine-coated flasks. After 13-14 days of culture, microglial cells were removed by shaking during 2 h. OPCs were next collected after 18 h of shaking, followed by differential adhesion. OPCs purification was validated by immunostaining of Olig2 and Sox10. To induce differentiation, cells were kept in proliferation medium (DMEM-F12, 1% PS, FGF, PDGF, 1% laminin, Biotin, 2% B27, N1 mix) for 24 h and then switched to a differentiation medium with the same composition but deprived of FGF and PDGF. Cells were incubated at 37° C. (5% CO2) for 5 days and the medium was partially replaced every 2 days. Cells were then fixed in 2% paraformaldehyde and immunostained with Sox10 and MBP. Cells were incubated for 2 hours with primary antibodies Sox10 (Goat 1/100) and MBP (Rabbit 1/500) diluted in 4% BSA in PBS 0.1M/0.1% Triton. After washes, cells were then incubated with the secondary antibody (anti-Goat Alexa647, anti-Rabbit Alexa488 and Dapi) for 1 hour and finally washed in PBS 0.1M and mounted in Fluoromount medium. […]
Oligodendrocytes differentiation was assessed by analyzing the fold increase of MBP^+Sox10^+ cells in treated conditions relative to the basal condition. The percentage of MBP^+Sox10^+ cells were quantified after treatments with pan-VEGFRs and selective VEGFR-1 antagonists and compared with the basal medium. […] Myelination was assessed using organotypic cerebellar slices generated from P7 mice cerebellum and the effect of VEGFRs sub-types antagonists on myelination was analyzed after immunostaining for Sox10 for oligodendroglia, MBP for myelin (white) and calbindin (gray). […] The myelination index for each condition was quantified as the percentage of MBP+CaBP+ axons over the total CaBP+ axonal surface area and normalized relatively to basal condition.

[3] = system: organotypic cerebellar slices; experiment: Myelination in organotypic cerebellar slices from P7 mice (MBP/CaBP); format: cell-based; settings: 3 days ex vivo, slices from P7 mouse
Protocol: as §1
Oligodendrocytes differentiation was assessed by analyzing the fold increase of MBP^+Sox10^+ cells in treated conditions relative to the basal condition. The percentage of MBP^+Sox10^+ cells were quantified after treatments with pan-VEGFRs and selective VEGFR-1 antagonists and compared with the basal medium. Results are shown as differentiation fold increase relative to the basal condition. Myelination was assessed using organotypic cerebellar slices generated from P7 mice cerebellum and the effect of VEGFRs sub-types antagonists on myelination was analyzed after immunostaining for Sox10 for oligodendroglia, MBP for myelin (white) and calbindin (gray). Slices were cultured in basal medium (control condition), or in the basal medium supplemented either with 9cis-RA (used as a positive control of myelination) or with VEGFR-1 selective and specific inhibitor (SU14813 and ZM306416), respectively. All compounds were used at 500 nM, except ZM306416 that has been used at 30 μM. The myelination index for each condition was quantified as the percentage of MBP+CaBP+ axons over the total CaBP+ axonal surface area and normalized relatively to basal condition.

[4] = system: rat primary OPC cultures; experiment: OPC differentiation (Olig2+MBP+ cells/Olig2+ cells) after VEGFR-1 shRNA or blocking peptide; format: cell-based; settings: blocking peptide vs control (basal medium), 5 days in differentiation medium
Protocol: Rat primary OPC cultures were obtained from neonatal pups (P0-P1). Brains were dissected, cerebellar cortices and meninges were removed. Brain tissues were next mechanically and enzymatically dissociated. After filtration and centrifugation, mixed cells of astrocytes, microglia and OPCs was cultured in DMEM medium on polyornithine-coated flasks. After 13-14 days of culture, microglial cells were removed by shaking during 2 h. OPCs were next collected after 18 h of shaking, followed by differential adhesion. OPCs purification was validated by immunostaining of Olig2 and Sox10. To induce differentiation, cells were kept in proliferation medium (DMEM-F12, 1% PS, FGF, PDGF, 1% laminin, Biotin, 2% B27, N1 mix) for 24 h and then switched to a differentiation medium with the same composition but deprived of FGF and PDGF. Cells were incubated at 37° C. […]
For RT-qPCR, transduction at MOI 8 and MOI 2 were used. […] For immunocytochemistry, transfection with MOI 4 was used and labelling with Olig2 and MBP to quantify Olig2+MBP+ differentiated oligodendrocytes.
Our data confirmed efficient lentivirus transduction with multiplicity of infection 4 (MOI 4) and knock-down of VEGFR-1 (FIG. 5A). […] To do so, we quantified Olig2+MBP+ differentiated oligodendrocytes over the total Olig2+ oligodendroglial cells (ratio of Olig2+MBP+ cells/Olig2+ cells) for each condition.

[5] = system: organotypic cerebellar slices; experiment: Myelination in organotypic cerebellar slices treated with VEGFR-1 blocking peptide; format: cell-based, mouse; settings: 10 μM, from 5 to 10 days in vitro
Protocol: as §1
Mouse cerebellar slices were prepared as previously described. […]

| Compound | neuroprotection / number of Purkinje cells relative to basal condition ([1]; 500 nM) | number of SOX10+MBP+ differentiated oligodendrocytes relative to basal condition [2] | MBP+ mature oligodendrocytes in organotypic cerebellar slices ([3]; 500 nM) | other results |
| --- | --- | --- | --- | --- |
| CNC(=O)c1cccc2cc(Oc3ccnc4cc(OCC5(N)CC5)c(OC)cc34)ccc12 [Lucitanib] | higher number of Purkinje cells with respect to the basal condition | significant increase | numerous MBP^+ mature oligodendrocytes |  |
| Cc1[nH]c(C=C2C(=O)Nc3ccc(F)cc32)c(C)c1C(=O)NC[C@H](O)CN1CCOCC1 [SU14813] | enhance neuroprotection of Purkinje cells | significant increase | numerous MBP^+ mature oligodendrocytes | myelination index (density of myelinated axons) vs basal, 9 cis-RA, VEGFR-2/3 inhibitor and pan-VEGFR inhibitors ([3]; 500 nM): density of myelinated axons was higher |
| CNC(=O)c1cc(COc2nnc(Nc3ccc(Cl)cc3)c3ccoc23)ccn1 [Telatinib] | but not of VEGFR-2/3 (Telatinib), enhance neuroprotection | significant increase |  |  |
| COc1cc2ncnc(Nc3ccc(Cl)cc3F)c2cc1OC [ZM306416] |  |  |  | neuroprotection / number of Purkinje cells relative to basal condition ([1]; 30 μM): enhance neuroprotection of Purkinje cells; MBP+ mature oligodendrocytes in organotypic cerebellar slices ([3]; 30 μM): numerous MBP^+ mature oligodendrocytes; myelination index (density of myelinated axons) vs basal, 9 cis-RA, VEGFR-2/3 inhibitor and pan-VEGFR inhibitors ([3]; 30 μM): density of myelinated axons was higher |
| GNQWFI [VEGFR-1-blocking peptide] |  |  |  | fold increase in the number of Olig2+MBP+ cells [4]: 1.18±0.19 fold; ex-vivo myelination (MBP+CaBP+ myelinated axons) [5]: enhances ex-vivo myelination |
